From article PMC9241644, “Evaluation of Novel Quorum Sensing Inhibitors Targeting Auto-Inducer 2 (AI-2) for the Control of Avian Pathogenic Escherichia coli Infections in Chickens” (Microbiology Spectrum, 2022)

Key:
[1] = QSI-5 and SDM residue quantification in muscle, kidney and liver (LC-MS); assay type: in vivo, chickens
Protocol: The safety of QSI-5 and SDM was assessed by measuring the level of drug residue in the muscle, kidney, and liver using LC-MS (CCIC, MS&P Facility, OSU) as described before ([34]). As described above, chickens were administered with the optimized dose of QSI-5 (1 mg/L) and the therapeutic dose of SDM (495.323 mg/L) (0.05%) in drinking water daily for 7 days (starting from day 5 to day 11 of age). Tissue samples were collected individually from chickens treated with QSI-5 and SDM (five chickens per group) from experimental set up as described for floor trial at 2 DPLT, 5 DPLT, and […] (slaughter age). All samples were weighed and extracted at a 400 mg/mL ratio of tissue in the extraction solution (50:50 H2O: ACN). Samples were homogenized using a probe sonicator 20 times and centrifuged at 13,000 × g for 30 min. Sixty μL of the supernatant was transferred into glass vials and dried in a SpeedVac for 1.5 h, and then resuspended in 120 μL of 25:25:50 H2O:ACN:MeOH. Standard calibration, LC system, mass spectrometer, and drug target monitoring were performed as described above. Calibration standard curves for measuring the accumulation of QSI-5 and SDM in the kidney, liver, and muscle are shown in Fig. S6A and S6B.

APEC = system: APEC; set-up: method as in PMID 30270715; conditions: in vitro; cited from earlier work
Rif^R APEC O78 = assay: Optimization of therapeutic dose of QSI-5 in drinking water, APEC-infected chickens; assay type: in vivo, Escherichia coli; conditions: for mortality reduction compared with PC group: PC normalized to 100%; for Mortality rate % (Nr.) / Average lesion severity, Lung / Average lesion severity, Liver / Average lesion severity, Heart / Average lesion severity, Airsac / Average APEC load, Kidney / Average APEC load, Lung / Average APEC load, Heart / Average APEC load, Liver: Table S2; for Mortality rate % (Nr.): PC 88.9 (8/9); for Average lesion severity, Lung: PC 1.11; for Average lesion severity, Liver: PC 2.11; for Average lesion severity, Heart: PC 2.78; for Average lesion severity, Airsac: PC 3.11; for Average APEC load, Kidney: PC 7.84; for Average APEC load, Lung: PC 7.93; for Average APEC load, Heart: PC 8.37; for Average APEC load, Liver: PC 8.46
Description: Chickens were monitored for clinical signs for 8 DPI. Any chickens moribund during this period were humanely euthanized and necropsied to determine bacterial load in the internal organs (liver, heart, lung, and kidney). Internal organs were aseptically collected, weighed and suspended in 1× PBS, the amount of PBS added was adjusted based on the organ size to make a suspension, the organ size and amount of PBS added were included in the final calculation of the CFU. The samples were homogenized, serially diluted 10-fold, plated on MacConkey agar (Remel, CA, USA) containing 50 μg/mL rifampicin, and incubated at 37°C for 24 h to determine the CFU/g. Pathological lesions severity in internal organs (pericarditis, perihepatitis, airsacculitis, and lung congestion) was scored as described previously ([21], [59]). At 8 DPI, the remaining chickens were humanely euthanized and necropsied, lesions were scored, and the APEC load was quantified in internal organs as described above.
One-day-old broiler chickens (n = 10/group) (Case Farms Ohio Hatchery, Strasburg, OH, USA) were used in this experiment. QSI-5 was synthesized in-house in the Fuchs laboratory (College of Pharmacy, OSU) via reductive amination reaction of commercially available 3-phenylpropionaldehyde with 1-(4-methylbenzyl) piperazine in the presence of acetic acid and sodium triacetoxyborohydride (Fig. S4). QSI-5 was administered daily in drinking water containing 0.05% DMSO at doses of 1 mg/L, 5 mg/L, 10 mg/L, and 20 mg/L for seven consecutive days starting from day 4 to day 10 of age. The amount of drinking water given daily was calculated based on the age of chickens (http://www.poultryhub.org/nutrition/nutrient-requirements/water-consumption-rates-for-chickens/). Chickens were infected with Rif^r APEC O78 (5 × 10^6 CFU/chicken) on day 5 as described above. The PC (0.05% DMSO treated and infected) and NC (non-treated and non-infected) control groups were included. The clinical signs and the daily mortality were recorded for 8 DPI. Dead chickens were necropsied, and APEC load was quantified in the internal organs as mentioned above. At 8 DPI, the remaining chickens were necropsied, lesions were scored, and the APEC load was quantified in internal organs as described above.

## Cc1ccc(CN2CCN(CCCc3ccccc3)CC2)cc1 [QSI-5]
[1]; 2 DPLT
  Drug accumulation, Kidney (ppm± SD): 0.0 ± 0.0 ppm
  Drug accumulation, Liver (ppm± SD): 0.0 ± 0.0 ppm
[1]; 2 DPLT, drinking water 7 days (QSI-5 1 mg/L, SDM 495.323 mg/L)
  Drug accumulation, Muscle (ppm± SD): 0.0 ± 0.0 ppm
[1]; 5 DPLT
  Drug accumulation, Kidney (ppm± SD): 0.0 ± 0.0 ppm
  Drug accumulation, Liver (ppm± SD): 0.0 ± 0.0 ppm
  Drug accumulation, Muscle (ppm± SD): 0.0 ± 0.0 ppm
[1]; 35 DPLT (slaughter age)
  Drug accumulation, Kidney (ppm± SD): 0.0 ± 0.0 ppm
  Drug accumulation, Liver (ppm± SD): 0.0 ± 0.0 ppm
  Drug accumulation, Muscle (ppm± SD): 0.0 ± 0.0 ppm
APEC
  effect on the growth of APEC: does not affect the growth of APEC
Rif^R APEC O78; QSI-5 1 mg/L in drinking water 7 days, s/c APEC O78 5 × 10^6 CFU/chicken
  mortality reduction compared with PC group: 58%
Rif^R APEC O78; QSI-5 5 mg/L in drinking water 7 days
  mortality reduction compared with PC group: 25%
Rif^R APEC O78; QSI-5 10 mg/L in drinking water 7 days
  mortality reduction compared with PC group: 50%
Rif^R APEC O78; QSI-5 20 mg/L in drinking water 7 days
  mortality reduction compared with PC group: 25%
Rif^R APEC O78; QSI-5 1 mg/L, (3/8)
  Mortality rate % (Nr.): 37.5%
Rif^R APEC O78; QSI-5 1 mg/L
  Average lesion severity, Lung: 0.33
  Average lesion severity, Liver: 1.25
  Average lesion severity, Heart: 1.63
  Average lesion severity, Airsac: 1.38
  Average APEC load, Kidney: 5.06 Log CFU/ g of tissue
  Average APEC load, Lung: 5.68 Log CFU/ g of tissue
  Average APEC load, Heart: 5.71 Log CFU/ g of tissue
  Average APEC load, Liver: 5.33 Log CFU/ g of tissue
Rif^R APEC O78; QSI-5 5 mg/L, (6/9)
  Mortality rate % (Nr.): 66.6%
Rif^R APEC O78; QSI-5 5 mg/L
  Average lesion severity, Lung: 0.38
  Average lesion severity, Liver: 1.33
  Average lesion severity, Heart: 1.89
  Average lesion severity, Airsac: 1.33
  Average APEC load, Kidney: 6.10 Log CFU/ g of tissue
  Average APEC load, Lung: 5.86 Log CFU/ g of tissue
  Average APEC load, Heart: 6.09 Log CFU/ g of tissue
  Average APEC load, Liver: 6.03 Log CFU/ g of tissue
Rif^R APEC O78; QSI-5 10 mg/L, (4/9)
  Mortality rate % (Nr.): 44.4%
Rif^R APEC O78; QSI-5 10 mg/L
  Average lesion severity, Lung: 0.78
  Average lesion severity, Liver: 2.11
  Average lesion severity, Heart: 2.44
  Average lesion severity, Airsac: 2.33
  Average APEC load, Kidney: 6.20 Log CFU/ g of tissue
  Average APEC load, Lung: 6.37 Log CFU/ g of tissue
  Average APEC load, Heart: 7.32 Log CFU/ g of tissue
  Average APEC load, Liver: 5.84 Log CFU/ g of tissue
Rif^R APEC O78; QSI-5 20 mg/L, (6/9)
  Mortality rate % (Nr.): 66.6%
Rif^R APEC O78; QSI-5 20 mg/L
  Average lesion severity, Lung: 0.44
  Average lesion severity, Liver: 1.22
  Average lesion severity, Heart: 2.11
  Average lesion severity, Airsac: 1.67
  Average APEC load, Kidney: 6.56 Log CFU/ g of tissue
  Average APEC load, Lung: 6.58 Log CFU/ g of tissue
  Average APEC load, Heart: 6.69 Log CFU/ g of tissue
  Average APEC load, Liver: 6.53 Log CFU/ g of tissue
